Structures are written as SMILES. Numbers after ± are expanded uncertainties.

The data set in a line: activity coefficient (dimensionless); of the first substance listed, at infinite dilution; xn = mol fraction of the nth substance listed. To be noted: Liquid, Chromatography, x1 = 0.

Turning to `C1=CCCCC1` [cyclohexene] + CCCCCCn1cc[n+](C)c1.O=S(=O)([O-])C(F)(F)F, the activity coefficient came out at 6.12 ± 0.64 (303.15 K); 6.2 ± 0.65 (313.15 K); 6.26 ± 0.66 (323.15 K); 6.37 ± 0.67 (333.15 K); 6.43 ± 0.68 (343.15 K); 6.5 ± 0.68 (353.15 K). For the same compound, the activity coefficient (363.15 K) came to 6.55 ± 0.69.
For the compound `Cc1cccc(C)c1` [1,3-dimethylbenzene] + CCCCCCn1cc[n+](C)c1.O=S(=O)([O-])C(F)(F)F, the activity coefficient (303.15 K) was determined as 2.82 ± 0.3; the activity coefficient (313.15 K) stood at 2.88 ± 0.3; the activity coefficient (323.15 K) worked out at 2.97 ± 0.31; the activity coefficient (333.15 K) was 3.03 ± 0.32; the activity coefficient (343.15 K) turned out to be 3.12 ± 0.33; the activity coefficient (353.15 K) stood at 3.19 ± 0.34. Also, the activity coefficient (363.15 K) is 3.25 ± 0.34.
As to `C1CCCCC1` [cyclohexane] + CCCCCCn1cc[n+](C)c1.O=S(=O)([O-])C(F)(F)F, the activity coefficient reads like this: (303.15 K) 11 ± 1.1; (313.15 K) 10.9 ± 1.1; (323.15 K) 10.8 ± 1.1; (333.15 K) 10.7 ± 1.1; (343.15 K) 10.6 ± 1.1; (353.15 K) 10.5 ± 1.1. For the setting “363.15 K”, the activity coefficient came out at 10.5 ± 1.1.
`Cc1ccc(C)cc1` [1,4-dimethylbenzene] + CCCCCCn1cc[n+](C)c1.O=S(=O)([O-])C(F)(F)F: the activity coefficient turned out to be 2.76 ± 0.29 (303.15 K); 2.84 ± 0.3 (313.15 K); 2.91 ± 0.3 (323.15 K); 2.97 ± 0.31 (333.15 K); 3.08 ± 0.32 (343.15 K); 3.16 ± 0.33 (353.15 K). Further, the activity coefficient (363.15 K) is 3.22 ± 0.34.
Consider `CCCCCCCCC` [nonane] + CCCCCCn1cc[n+](C)c1.O=S(=O)([O-])C(F)(F)F, for which the activity coefficient runs as follows: (303.15 K) 45.4 ± 4.8; (313.15 K) 44.6 ± 4.7; (323.15 K) 43.7 ± 4.6; (333.15 K) 42.3 ± 4.5; (343.15 K) 41.8 ± 4.4; (353.15 K) 40.3 ± 4.2. For the same compound, the activity coefficient (363.15 K) came to 39.9 ± 4.2.
As for `CCCCCC` [hexane] + CCCCCCn1cc[n+](C)c1.O=S(=O)([O-])C(F)(F)F, the activity coefficient (303.15 K) amounted to 21.3 ± 2.2; the activity coefficient (313.15 K) came to 21.2 ± 2.2; the activity coefficient (323.15 K) was determined as 21.1 ± 2.2; the activity coefficient (333.15 K) was found to be 20.9 ± 2.2; the activity coefficient (343.15 K) was 20.8 ± 2.2; the activity coefficient (353.15 K) is 20.7 ± 2.2. For the same compound, the activity coefficient (363.15 K) stood at 20.5 ± 2.2.
In the case of `Cc1ccccc1` [toluene] + CCCCCCn1cc[n+](C)c1.O=S(=O)([O-])C(F)(F)F, the activity coefficient by setting is: (303.15 K) 1.98 ± 0.21; (313.15 K) 2.03 ± 0.21; (323.15 K) 2.06 ± 0.22; (333.15 K) 2.14 ± 0.23; (343.15 K) 2.2 ± 0.23; (353.15 K) 2.25 ± 0.24. For the same compound, the activity coefficient (363.15 K) turned out to be 2.27 ± 0.24.
For `CCCCCCC` [heptane] + CCCCCCn1cc[n+](C)c1.O=S(=O)([O-])C(F)(F)F, the activity coefficient is, setting by setting: (303.15 K) 26.9 ± 2.8; (313.15 K) 26.7 ± 2.8; (323.15 K) 26.6 ± 2.8; (333.15 K) 26.5 ± 2.8; (343.15 K) 26.4 ± 2.8; (353.15 K) 26.3 ± 2.8. For the same compound, the activity coefficient (363.15 K) stood at 26.1 ± 2.7.
Consider `CC1CCCCC1` [methylcyclohexane] + CCCCCCn1cc[n+](C)c1.O=S(=O)([O-])C(F)(F)F, for which the activity coefficient was found to be 14.1 ± 1.5 (303.15 K); 14 ± 2 (313.15 K); 13.9 ± 1.5 (323.15 K); 13.8 ± 1.4 (333.15 K); 13.7 ± 1.4 (343.15 K); 13.6 ± 1.4 (353.15 K). Moreover, under “363.15 K”, the activity coefficient amounted to 13.5 ± 1.4.
Consider `c1ccccc1` [benzene] + CCCCCCn1cc[n+](C)c1.O=S(=O)([O-])C(F)(F)F, for which the activity coefficient (303.15 K) turned out to be 1.43 ± 0.15; the activity coefficient (313.15 K) was 1.48 ± 0.15; the activity coefficient (323.15 K) amounted to 1.5 ± 0.16; the activity coefficient (333.15 K) is 1.55 ± 0.16; the activity coefficient (343.15 K) is 1.6 ± 0.2; the activity coefficient (353.15 K) was determined as 1.64 ± 0.17. For the same compound, the activity coefficient (363.15 K) was found to be 1.65 ± 0.17.
For `Cc1ccccc1C` [1,2-dimethylbenzene] + CCCCCCn1cc[n+](C)c1.O=S(=O)([O-])C(F)(F)F, the activity coefficient turned out to be 2.39 ± 0.25 (303.15 K); 2.47 ± 0.26 (313.15 K); 2.56 ± 0.27 (323.15 K); 2.64 ± 0.28 (333.15 K); 2.67 ± 0.28 (343.15 K); 2.72 ± 0.28 (353.15 K). Besides, under “363.15 K”, the activity coefficient came out at 2.8 ± 0.29.
Regarding `C=Cc1ccccc1` [styrene] + CCCCCCn1cc[n+](C)c1.O=S(=O)([O-])C(F)(F)F, the activity coefficient by setting is: (303.15 K) 1.7 ± 0.2; (313.15 K) 1.73 ± 0.18; (323.15 K) 1.76 ± 0.18; (333.15 K) 1.81 ± 0.19; (343.15 K) 1.84 ± 0.19; (353.15 K) 1.85 ± 0.19. Besides, the activity coefficient (363.15 K) came to 1.88 ± 0.2.
On to `CC(C)CC(C)(C)C` [2,2,4-trimethylpentane] + CCCCCCn1cc[n+](C)c1.O=S(=O)([O-])C(F)(F)F, for which the activity coefficient is, setting by setting: (303.15 K) 27.5 ± 2.9; (313.15 K) 26.9 ± 2.8; (323.15 K) 26.7 ± 2.8; (333.15 K) 26.3 ± 2.8; (343.15 K) 25.9 ± 2.7; (353.15 K) 25.7 ± 2.7. In addition, where the note is “363.15 K”, the activity coefficient worked out at 25.4 ± 2.7.
`CCCCC` [pentane] + CCCCCCn1cc[n+](C)c1.O=S(=O)([O-])C(F)(F)F: the activity coefficient turned out to be 14.8 ± 1.6 (303.15 K); 14.6 ± 1.5 (313.15 K); 14.5 ± 1.5 (323.15 K); 14.3 ± 1.5 (333.15 K); 14.1 ± 1.5 (343.15 K); 14 ± 1.5 (353.15 K). Moreover, the activity coefficient (363.15 K) is 13.9 ± 1.5.
Take `CCCCCCCC` [octane] + CCCCCCn1cc[n+](C)c1.O=S(=O)([O-])C(F)(F)F: the activity coefficient was 35 ± 3.7 (303.15 K); 34.5 ± 3.6 (313.15 K); 33.9 ± 3.6 (323.15 K); 33.4 ± 3.5 (333.15 K); 33.1 ± 3.5 (343.15 K); 32.7 ± 3.4 (353.15 K). Also, the activity coefficient (363.15 K) was found to be 32 ± 3.4.
With `CCCCCCCCCC` [decane] + CCCCCCn1cc[n+](C)c1.O=S(=O)([O-])C(F)(F)F, the activity coefficient (303.15 K) was 457 ± 48; the activity coefficient (313.15 K) was 357 ± 38; the activity coefficient (323.15 K) amounted to 279 ± 29; the activity coefficient (333.15 K) turned out to be 227 ± 24; the activity coefficient (343.15 K) stood at 184 ± 19; the activity coefficient (353.15 K) stood at 148 ± 16. For the same compound, the activity coefficient (363.15 K) is 112 ± 12.
With `CCc1ccccc1` [ethylbenzene] + CCCCCCn1cc[n+](C)c1.O=S(=O)([O-])C(F)(F)F, the activity coefficient (303.15 K) worked out at 2.88 ± 0.3; the activity coefficient (313.15 K) was determined as 2.94 ± 0.31; the activity coefficient (323.15 K) amounted to 2.99 ± 0.31; the activity coefficient (333.15 K) amounted to 3.04 ± 0.32; the activity coefficient (343.15 K) was determined as 3.12 ± 0.33; the activity coefficient (353.15 K) was found to be 3.21 ± 0.34. Also, the activity coefficient (363.15 K) is 3.27 ± 0.34.

For the origin of these results see the NIST ThermoML archive (doi:10.1021/je800043a).
